How the values were obtained:
Assay in all cases: relative viability (nuclei count vs DMSO), 5 days (fraction); higher = more cells survive
Zosuquidar + Tozasertib = compound: O[C@@H](COc1cccc2ncccc12)CN1CCN([C@@H]2c3ccccc3[C@@H]3[C@H](c4ccccc42)C3(F)F)CC1 [Zosuquidar] + Cc1cc(Nc2cc(N3CCN(C)CC3)nc(Sc3ccc(NC(=O)C4CC4)cc3)n2)n[nH]1 [Tozasertib] (partner 0.1 µM)
Outline: (§1)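 Lung cancer cell lines were pin-tool dosed in 1536-well plates on the day after seeding, with either a lone drug or a fixed anchor-drug dose plus five library-drug doses (not always all listed) in √10 steps. Nuclei were counted on 4× images after 5 days. Relative viability is the ratio of treated-well to vehicle-well nuclei counts, with each value a median of duplicate plates.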

Kobe2602 + Pemetrexed = compound: C1=CC(=CC=C1NC(=S)NNC2=C(C=C(C=C2[N+](=O)[O-])C(F)(F)F)[N+](=O)[O-])F [Kobe2602] + Nc1nc2[nH]cc(CCc3ccc(C(=O)N[C@@H](CCC(=O)O)C(=O)O)cc3)c2c(=O)[nH]1 [Pemetrexed] (partner 0.2 µM)
Outline: as §1

Kobe2602 + Vorinostat = compound: C1=CC(=CC=C1NC(=S)NNC2=C(C=C(C=C2[N+](=O)[O-])C(F)(F)F)[N+](=O)[O-])F [Kobe2602] + O=C(CCCCCCC(=O)Nc1ccccc1)NO [Vorinostat] (partner 1 µM)
Outline: as §1

Zosuquidar + Olaparib = compound: O[C@@H](COc1cccc2ncccc12)CN1CCN([C@@H]2c3ccccc3[C@@H]3[C@H](c4ccccc42)C3(F)F)CC1 [Zosuquidar] + O=C(c1cc(Cc2n[nH]c(=O)c3ccccc23)ccc1F)N1CCN(C(=O)C2CC2)CC1 [Olaparib] (partner 8 µM)
Outline: as §1

Cell Line	relative viability (Zosuquidar + Tozasertib; first compound 0.01 µM)	relative viability (Zosuquidar + Tozasertib; first compound 0.03162 µM)	relative viability (Zosuquidar + Tozasertib; first compound 0.1 µM)	relative viability (Zosuquidar + Tozasertib; first compound 0.3162 µM)	relative viability (Zosuquidar + Tozasertib; first compound 1 µM)	relative viability (Kobe2602 + Pemetrexed; first compound 0.6325 µM)	relative viability (Kobe2602 + Pemetrexed; first compound 2 µM)	relative viability (Kobe2602 + Pemetrexed; first compound 6.325 µM)	relative viability (Kobe2602 + Pemetrexed; first compound 20 µM)	relative viability (Kobe2602 + Vorinostat; first compound 0.6325 µM)	relative viability (Kobe2602 + Vorinostat; first compound 2 µM)	relative viability (Kobe2602 + Vorinostat; first compound 6.325 µM)	relative viability (Kobe2602 + Vorinostat; first compound 20 µM)	relative viability (Zosuquidar + Olaparib; first compound 0.01 µM)	relative viability (Zosuquidar + Olaparib; first compound 0.03162 µM)	relative viability (Zosuquidar + Olaparib; first compound 0.1 µM)	relative viability (Zosuquidar + Olaparib; first compound 0.3162 µM)	relative viability (Zosuquidar + Olaparib; first compound 1 µM)	relative viability (Kobe2602 + Pemetrexed; first compound 0.2 µM)	relative viability (Kobe2602 + Vorinostat; first compound 0.2 µM)
NCI-H1623	0.43	0.33	0.435	0.421	0.407	–	–	–	–	–	–	–	–	–	–	–	–	–	–	–
NCI-H460	0.335	0.474	0.671	0.476	0.323	0.0647	0.0722	0.0653	0.0677	0.702	0.705	0.724	0.68	0.41	0.403	0.32	0.421	0.39	–	–
NCI-H3122	0.396	0.391	–	0.466	0.379	0.191	0.198	0.187	0.208	0.701	0.979	0.855	1.06	0.606	0.608	0.565	0.621	0.637	0.189	0.986
HCC-44	0.965	1.13	1.17	1.01	0.889	0.684	0.653	0.671	0.609	1.04	1.08	1.05	0.99	1.01	1.02	1.02	0.961	0.934	0.595	0.999
HCC-78	0.413	0.329	–	0.44	0.398	0.923	0.699	0.868	0.844	0.444	0.433	0.452	0.507	0.939	–	–	0.862	0.846	0.891	0.485
COR-L23	0.196	0.224	0.188	0.215	0.187	0.2	0.212	0.204	0.204	0.491	0.405	0.472	0.404	0.363	0.38	0.333	0.355	0.37	0.209	0.476
NCI-H2009	0.538	0.518	0.574	0.46	0.436	1.03	1.09	1.02	0.979	0.783	0.763	0.752	0.692	0.631	0.611	0.684	0.639	0.65	1.02	0.715
NCI-H322M	0.461	0.54	0.383	0.445	0.519	0.646	0.605	0.652	0.631	1.03	0.851	0.849	0.921	0.774	0.898	0.665	0.698	0.796	0.63	0.958
NCI-H2228	0.213	0.272	0.252	0.208	0.272	0.356	0.339	0.344	0.35	0.744	0.522	0.425	0.611	0.626	0.51	0.61	0.64	0.936	0.369	0.649
NCI-H358	0.109	0.12	0.093	0.1	0.0956	0.208	0.17	0.166	0.178	0.733	0.586	0.719	0.689	0.671	0.632	0.519	0.65	0.703	0.196	0.706
NCI-H2342	0.499	0.468	0.55	0.608	0.597	0.754	0.734	0.763	0.844	0.789	0.761	0.716	1.17	0.459	0.544	0.421	0.501	0.439	0.734	0.713
LK-2	0.171	0.163	0.174	0.172	0.183	0.188	0.279	0.248	0.328	0.334	0.376	0.305	0.551	0.542	0.891	0.597	0.752	0.852	0.259	0.295
NCI-H1755	0.541	0.634	0.535	0.634	0.564	0.419	0.447	0.391	0.398	0.743	0.671	0.744	0.802	0.873	0.88	0.778	0.92	0.867	0.514	0.743
A-427	0.205	0.247	0.271	0.218	0.192	1.08	0.963	0.956	0.902	0.849	0.906	0.888	0.867	0.757	0.711	0.76	0.771	0.819	0.993	0.889
ABC-1	0.143	0.172	0.194	0.234	0.178	–	–	–	–	1.54	0.754	1.02	1.41	0.892	0.684	1.09	0.78	0.901	–	1.17
NCI-H727	0.675	0.484	0.45	0.439	0.401	–	–	–	–	1.31	1.06	–	1.55	0.72	0.772	–	0.746	0.7	–	1.18
NCI-H1792	–	–	–	–	–	0.964	0.714	0.887	0.814	–	–	–	–	0.334	0.424	0.339	0.422	0.396	0.679	–
NCI-H1563	–	–	–	–	–	0.717	0.611	0.786	0.847	–	–	–	–	–	–	–	–	–	0.846	–
EBC-1	–	–	–	–	–	–	–	–	–	–	–	–	–	0.692	0.797	0.638	0.827	0.705	–	–
IA-LM	–	–	–	–	–	–	–	–	–	0.95	0.819	0.953	0.988	0.817	0.805	0.82	0.879	0.885	–	0.894

Source: the supplement of paper PMC10307832
